Legend:
trypsin = trypsin (Homo sapiens, UniProt P07477); experiment: Determination of enzyme selectivity: trypsin; type: biochemical; conditions: substrate at Km concentration
Method: Human serine protease enzymes plasmin, thrombin, trypsin, Factor Xa and Factor XIIa were assayed for enzymatic activity using an appropriate fluorogenic substrate. Protease activity was measured by monitoring the accumulation of liberated fluorescence from the substrate over 5 minutes. The linear rate of fluorescence increase per minute was expressed as percentage (%) activity. The Km for the cleavage of each substrate was determined by standard transformation of the Michaelis-Menten equation.

Human plasma kallikrein = Human plasma kallikrein (Homo sapiens (Human), UniProt P03952); experiment: Determination of the IC50 for plasma kallikrein; type: biochemical; conditions: 37° C., fluorogenic substrate H-DPro-Phe-Arg-AFC; read-out: IC50 (human PKal)
Method: Human plasma kallikrein (Protogen) was incubated at 37° C. with the fluorogenic substrate H-DPro-Phe-Arg-AFC and various concentrations of the test compound. Residual enzyme activity (initial rate of reaction) was determined by measuring the change in optical absorbance at 410 nm and the IC50 value for the test compound was determined.

Human KLK1 = Human KLK1 (Homo sapiens (Human), UniProt P06870); experiment: Determination of the IC50 for KLK1; type: biochemical; conditions: 37° C., fluorogenic substrate H-DVal-Leu-Arg-AFC
Method: KLK1 inhibitory activity in vitro was determined using standard published methods (see e.g. Johansen et al., Int. J. Tiss. Reac. 1986, 8, 185; Shori et al., Biochem. Pharmacol., 1992, 43, 1209; Stürzebecher et al., Biol. Chem. Hoppe-Seyler, 1992, 373, 1025). Human KLK1 (Callbiochem) was incubated at 37° C. with the fluorogenic substrate H-DVal-Leu-Arg-AFC and various concentrations of the test compound. Residual enzyme activity (initial rate of reaction) was determined by measuring the change in optical absorbance at 410 nm and the IC50 value for the test compound was determined.

diabetic rats = conditions: cited from earlier work

Chain of Human KLK1 (P06870 25-262): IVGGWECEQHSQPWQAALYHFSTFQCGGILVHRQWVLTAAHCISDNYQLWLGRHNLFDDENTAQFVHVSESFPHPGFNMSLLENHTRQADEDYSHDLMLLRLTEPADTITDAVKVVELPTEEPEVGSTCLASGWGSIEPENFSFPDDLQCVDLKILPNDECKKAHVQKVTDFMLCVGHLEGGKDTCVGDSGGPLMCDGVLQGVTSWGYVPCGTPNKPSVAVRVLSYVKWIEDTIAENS
Chain of Human plasma kallikrein (P03952 391-638): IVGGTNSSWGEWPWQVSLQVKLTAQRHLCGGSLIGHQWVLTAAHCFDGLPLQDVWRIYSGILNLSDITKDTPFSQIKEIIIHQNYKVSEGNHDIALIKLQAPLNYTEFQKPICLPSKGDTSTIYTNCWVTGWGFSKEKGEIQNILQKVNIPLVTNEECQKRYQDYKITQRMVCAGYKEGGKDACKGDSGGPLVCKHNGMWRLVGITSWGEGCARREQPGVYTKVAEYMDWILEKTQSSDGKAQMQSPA
Chain of Human plasma kallikrein (P03952 20-390 partner): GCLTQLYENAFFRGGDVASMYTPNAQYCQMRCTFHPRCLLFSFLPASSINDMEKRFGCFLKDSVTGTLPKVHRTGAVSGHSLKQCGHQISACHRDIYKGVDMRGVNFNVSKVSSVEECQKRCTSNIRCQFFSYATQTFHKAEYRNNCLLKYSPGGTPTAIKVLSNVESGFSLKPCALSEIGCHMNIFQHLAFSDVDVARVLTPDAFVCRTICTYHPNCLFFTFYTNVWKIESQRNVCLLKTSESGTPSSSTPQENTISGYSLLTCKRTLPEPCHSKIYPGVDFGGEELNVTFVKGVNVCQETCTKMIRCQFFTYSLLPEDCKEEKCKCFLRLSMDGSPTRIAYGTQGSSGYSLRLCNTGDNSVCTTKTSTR

| Compound | IC50 (trypsin) | IC50 (Human plasma kallikrein) | IC50 (Human KLK1) | further results |
| --- | --- | --- | --- | --- |
| Cc1cc(CN)ccc1CNC(=O)c1cc(C)n(Cc2csc(-c3ccccc3)n2)c1C [Example 2, 2,5-Dimethyl-1-(2-phenyl-thiazol-4-ylmethyl)-1H-pyrrole-3-carboxylic acid 4-aminomethyl-2-methyl-benzylamide] | > 40 µM |  |  |  |
| Cc1cc(C(=O)NCc2ccc(CN)cc2)c(C)n1Cc1csc(-c2ccoc2)n1 [Example 39, 2,5-Dimethyl-1-(2-furan-3-yl-thiazol-4-ylmethyl)-1H-pyrrole-3-carboxylic acid 4-aminomethyl-benzylamide] |  | 1.09 µM | > 10 µM |  |
| Cc1cc(C(=O)NCc2ccc(CN)cc2)c(C)n1Cc1csc(-c2ccccc2)n1 [Example 1, 2,5-Dimethyl-1-(2-phenyl-thiazol-4-ylmethyl)-1H-pyrrole-3-carboxylic acid 4-aminomethyl-benzylamide] | > 40 µM |  |  |  |
| Cc1cc(C(=O)NCc2ccc(CN)cc2)c(C)n1Cc1ccc(-c2ccncc2)s1 [Example 21, 2,5-Dimethyl-1-(5-pyridin-4-yl-thiophen-2-ylmethyl)-1H-pyrrole-3-carboxylic acid 4-aminomethyl-benzylamide] |  | 4.52 µM | 7.5 µM |  |
| NCc1ccc(CNC(=O)c2cn(Cc3csc(-c4ccccc4)n3)nc2C(F)(F)F)cc1 [Example 83, 1-(2-Phenyl-thiazol-4-ylmethyl)-3-trifluoromethyl-1H-pyrazole-4-carboxylic acid 4-aminomethyl-benzylamide] | 26.6 µM |  |  |  |
| N=C(N)c1ccc(CNC(=O)c2cnn(Cc3ccccc3)c2)cc1 [ASP-440] |  |  |  | retinal vascular permeability and retinal blood flow abnormalities (diabetic rats): ameliorated |
| NCc1ccc(CNC(=O)c2cn(Cc3ccccc3)nc2-c2ccccc2)cc1 [Example 84, 1-Benzyl-3-phenyl-1H-pyrazole-4-carboxylic acid 4-aminomethyl-benzylamide] | > 40 µM |  |  |  |
| Cc1cc(C(=O)NCc2ccc(CN)cc2)c(C)n1Cc1cc(-c2ccccc2)cs1 [Example 9, 2,5-Dimethyl-1-(4-phenyl-thiophen-2-ylmethyl)-1H-pyrrole-3-carboxylic acid 4-aminomethyl-benzylamide] |  | 0.543 µM | > 10 µM |  |

From patent US9834513B2, “Benzylamine derivatives” (KALVISTA PHARMACEUTICALS LIMITED, priority 2013, dated 2017)
